US20190030009A1, “COMPOUNDS AND COMPOSITIONS FOR THE TREATMENT OF CRYPTOSPORIDIOSIS” (Novartis AG, priority 2016, published 2019)

Test system: Cryptosporidium parvum
Experiment: Cytopathic effect (CPE) based assay, C. parvum infected HCT-8 cells
Settings: HCT-8 host cell viability (CellTiter-Glo), 48 hours treatment, read-out: Cp CPE EC50
Experimental: Human ileocecal colorectal adenocarcinoma cells (HCT-8 [HRT-18] ATCC, CCL-34) were maintained in T-175 flasks (Corning, 431080) in complete growth medium (RPMI-1640 medium (Gibco, 11875) supplemented with 10% heat-inactivated horse serum (Gibco, 26050), 1×MEM non-essential amino acids (Gibco, 11140), 10 mM HEPES (Gibco, 15630), 100 units/mL penicillin, and 100 units/mL streptomycin) at 37° C. and 5% CO2 in a humidified incubator. Cultures were passaged twice weekly using 10 mL of 1×Phosphate-Buffered Saline (PBS) without Ca^2+ and Mg^2+ (Gibco, 20012) for washing and 3-5 mL per T-175 flask of TrypLE Express Enzyme (Gibco, 12604) for dissociation of adherent cells.
Cryptosporidium parvum oocysts purchased from the Sterling Laboratory, University of Arizona (Iowa isolate) were purified from infected calf feces using discontinuous sucrose and cesium chloride centrifugation gradients and stored in PBS solution containing 0.01% Tween 20, 100 units/mL penicillin and 100 units/mL gentamicin.
Excystation and infection protocols were developed following established methods with some modifications (Gut & Nelson, 1999, Upton et aL, 1995, Bessoff et aL, 2013). Briefly, oocysts were primed in 1 mL of 10 mM hydrochloric acid in 1× Hank's Balanced Salt Solution (HBSS) (Gibco, 14025) for 10 minutes with agitation at 1000 rpm, 37° C. on an Eppendorf thermomixer, then washed twice with 1 mL of room temperature non-acidic 1× HBSS by centrifugation at 13,000 rpm for 3 minutes at 25° C. Primed oocysts were further excysted at a concentration of 1×10^6 oocysts/μL in parasite infection medium consisting of a pre-warmed and pre-gassed 1:1 formulation of Leibovitz's L-15 medium (Gibco, 11415) and UltraCULTURE medium (Lonza, 12-725F) supplemented with 2 mM sodium taurocholate (Sigma, 86339-1), 10% heat-inactivated horse serum, and 200 μM L-ascorbic acid (Sigma, 95210) at 25° C. for 10 minutes. HCT-8 monolayer cells were infected with excysted cryptosporidium at a specified multiplicity of infection (MOI). All dilutions for subsequent assays were performed in parasite infection medium without sodium taurocholate. Pre-excysted oocysts were enumerated microscopically using a C-Chip disposable hemocytometer (NanoEnTek, DHC-N01).
Compound powders were dissolved in neat DMSO (Fisher, D4121) to 10 mM and stored at 4° C. prior to dilution into source plates. Dilutions were carried out using a Microlab STAR liquid handler (Hamilton) to obtain compound source plates containing the ten-point or eight-point three fold dilutions starting from 10 mM in duplicates. Source plates were stored at 4° C. prior to spotting into assay plates. Before administration, all compound source plates were equilibrated to room temperature. A specified volume of compounds from source plate were spotted to assay plate using an Echo Acoustic liquid handler (LABCYTE, 550) so that the final DMSO concentration was less than 0.5%. Each assay plate a specified number of DMSO-treated negative control wells and a well-studied potent active compound at 100 nM as positive control. As a quality control, all positive and negative-control wells were used to calculate a Z′-value and signal to noise ratio (S:N) for each plate.
Cryptosporidium spp are obligate-intracellular parasites that infect intestinal epithelial cells and the host cell is killed upon parasite egress. […] The loss of epithelial cells is due to both rapid parasite invasion/multiplication/egress and also pro-inflammatory immune response (Adams et al., 1994, Griffiths et al., 1994). We have observed a consistent cytopathic effect (CPE) in HCT-8 cells with C. spp infection the loss of viability of the host cells using CellTiter-Glo reagent.
Confluent HCT-8 cells in T-175 flasks were directly infected with excysted oocysts at an MOI (host to parasite) of 1:2 for C. parvum and 1:4 for C. hominis. The number of host-cells is determined using a NucleoCounter (Chemometec, NC-100) in a control flask. […]

Structure (SMILES) | EC50
COc1cc(-c2cnn3ccc(C(=O)N(C)c4ccc(C#N)cn4)cc23)cnc1N [Example 88] | 2250 nM
CN(C(=O)c1ccc(C(C)(F)F)nc1)c1ccn2ncc(-c3ccc(C(F)(F)F)cc3)c2c1 [Example 48] | 6300 nM
CN(C(=O)c1ccn2ncc(-c3ccc(N)cc3)c2c1)c1ccc(C#N)cc1 [Example 42] | 142 nM
CN(Cc1ccc(F)cc1)c1ccn2ncc(-c3ccc(C(F)(F)F)cc3)c2c1 [Example 36] | > 20000 nM
CN(C(=O)c1ccc(F)cc1)c1ccn2ncc(-c3ccc(C(F)(F)F)cc3)c2c1 [Example 29] | > 20000 nM
CN(C(=O)c1ccc(F)cn1)c1ccn2ncc(-c3ccc(C(F)(F)F)cc3)c2c1 [Example 51] | > 20000 nM
CN(C(=O)c1ccc(C2CC2)nc1)c1ccn2ncc(-c3ccc(C(F)(F)F)cc3)c2c1 [Example 49] | 19200 nM
[O-][S+](Cc1ccn2ncc(-c3ccc(C(F)(F)F)cc3)c2c1)c1ccc(F)cc1 (centres unmarked) [Example 22] | > 20000 nM
Fc1ccc(CNc2ccn3ncc(-c4ccc(C(F)(F)F)cc4)c3c2)cc1 [Example 35] | > 20000 nM
CN(C(=O)c1ccn2ncc(-c3ccc(C(N)=O)cn3)c2c1)c1ccc(C#N)cn1 [Example 61] | 17800 nM
CN(C(=O)c1ccc(C(F)(F)F)cn1)c1ccn2ncc(-c3ccc(C(F)(F)F)cc3)c2c1 [Example 38] | 4710 nM
CN(c1ccn2ncc(-c3ccc(C(F)(F)F)cc3)c2c1)S(=O)(=O)c1ccc(F)cc1 [Example 31] | > 20000 nM
CN(C(=O)c1ccn2ncc(-c3ccc(C(F)(F)F)cc3)c2c1)c1ccc(S(C)(=O)=O)cn1 [Example 34] | 4870 nM
N#Cc1ccc(C(=O)N(CC2CCOCC2)c2ccn3ncc(-c4ccc(C(F)(F)F)cc4)c3c2)cc1 [Example 39] | > 20000 nM
CNc1nnc(-c2ccc(-c3cnn4ccc(N(C)C(=O)c5ccc(F)cc5)cc34)cc2)s1 [Example 57] | 5590 nM
C[C@H](N)C(=O)Nc1ccc(-c2cnn3ccc(C(=O)N(C)c4ccc(C#N)cc4)cc23)cc1 [Example 26] | 142 nM

Structure (SMILES) | EC50
CN(Cc1ccn2ncc(-c3ccc(C(F)(F)F)cc3)c2c1)c1ccc(F)cc1 [Example 2] | > 20000 nM
Cc1ccc(N(C)Cc2ccn3ncc(-c4ccc(C(F)(F)F)cc4)c3c2)nc1 [Example 7] | > 20000 nM
CC(c1ccn2ncc(-c3ccc(C(N)=O)cc3)c2c1)N1C(=O)COc2cc(F)ccc21 (centres unmarked) [Example 66] | 132 nM
CN(C(=O)c1ccn2ncc(-c3ccc(C(F)(F)F)cc3)c2c1)C1=CCC(C#N)C=C1 (centres unmarked) [Example 1] | 660 nM
CN(C(=O)c1ccn2ncc(-c3ccc(C(N)=O)cc3)c2c1)c1ccc(Cl)cc1C=O [Example 89] | 85 nM
CNC(=O)c1ccc(-c2cnn3ccc(C(=O)N(c4ccc(C#N)cn4)C4COC4)cc23)cc1 [Example 76] | > 20000 nM
Cc1ccc(N(C)C(=O)c2ccn3ncc(-c4ccc(C(N)=O)cc4)c3c2)nc1 [Example 63] | 195 nM
CN(C(=O)c1ccn2ncc(-c3ccc(C(F)(F)F)cn3)c2c1)c1ccc(C#N)cn1 [Example 25] | 2300 nM
CC(=O)Nc1ccc(-c2cnn3ccc(C(=O)N(C)c4ccc(C#N)cn4)cc23)cc1 [Example 69] | 201 nM
CN(C(=O)c1ccc(C2CC2)cc1)c1ccn2ncc(-c3ccc(C(F)(F)F)cc3)c2c1 [Example 50] | > 20000 nM
CN(C(=O)c1ccn2ncc(-c3cnc(N)c(F)c3)c2c1)c1ccc(C#N)cc1 [Example 79] | 205 nM
CN(C(=O)Nc1ccc(F)cc1)c1ccn2ncc(-c3ccc(C(F)(F)F)cc3)c2c1 [Example 47] | > 20000 nM
CNC(=O)c1ccc(-c2cnn3ccc(C(=O)N4c5ccc(F)cc5OCC4C)cc23)cc1 (centres unmarked) [Example 74] | 1240 nM
CN(C(=O)c1ccn2ncc(-c3ccc(C(N)=O)cc3)c2c1)c1ccc(C(F)(F)F)cn1 [Example 62] | 28 nM
Cc1ccc(OCc2ccn3ncc(-c4ccc(C(F)(F)F)cc4)c3c2)nc1 [Example 15] | > 20000 nM
CN(C(=O)c1ccn2ncc(-c3cnc4[nH]ccc4c3)c2c1)c1ccc(C#N)cc1 [Example 40] | 74 nM
